Patent US20250114313A1, “OLIGO-BENZAMIDE ANALOGS AND THEIR USE IN CANCER TREATMENT” (BOARD OF REGENTS, THE UNIVERSITY OF TEXAS SYSTEM, priority 2022, published 2025)
Read-outs that look alike come from different tables or passages of the source.

How the values were obtained:
[1] = tested on: TNBC cells (SUM-159, MDA-MB-231); test: MTT cell viability, TNBC cells; format: cell-based, Human; conditions: for IC50: MTT cell viability assays, read-out: antiproliferative IC50 against TNBC cells
Protocol: (§1) Cell viability assays: Cells were seeded in 96-well plates (2×10^3 cells/well) one day before the treatment. Cells were treated with varying concentrations of ERX-41 or ERX-11 analogs for 3-6 days. Then effects of ERX-41 or ERX-11 analogs on cell viability were measured in triplicate or sextuplicate with multiple biological replicates using the WST-1 (Promega), MTT as previously described^33 or CellTiter-Glo 2.0 (Promega) assays.

[2] = tested on: 21 human preclinical TNBC cell line models; test: WST-1 assay, TNBC cell lines; format: cell-based; conditions: 21 TNBC cell lines, all six molecular subtypes, read-out: anti-proliferative IC50, WST-1
Protocol: as §1

[3] = tested on: ERα-positive cell lines; test: WST assay, ERα-positive cell lines; format: cell-based; conditions: Homo sapiens, read-out: anti-proliferative IC50, WST
Protocol: as §1

[4] = tested on: ERα-positive cell lines; test: CellTiter-Glo assay, ERα-positive cell lines; format: cell-based; conditions: Homo sapiens, read-out: anti-proliferative IC50, CellTiter-Glo
Protocol: as §1

[5] = tested on: HMEC cells; test: Western blotting (UPR proteins, puromycin labeled nascent proteins), HMEC; format: cell-based, human; conditions: 1 μM
[6] = tested on: parental SUM-159 xenografts; test: Parental SUM-159 xenografts; format: in vivo, SCID mice
Protocol: Knockout studies: For xenograft knockout tumor models, 1.8×10^6SUM159 parental, or 1.8×10^6SUM159-LIPA KO cells were harvested with 1% trypsin-EDTA, washed and resuspended in sterile PBS. Cells were initially implanted into the mammary fat pads of six-week-old female C.B-17 (SCID) mice purchased from Envigo (Indianapolis, IN, USA). Mice were monitored twice weekly for tumor growth measured by Vernier calipers where tumor volume was calculated by the formula (length×width^2)/2. Tumors were dissected into 2 mm cubes when they reached 800 mm^3 in size and subsequently implanted into the mammary fat pad of twelve SCID female mice. Once tumor fragments reached 150 mm^3 in size, mice were randomly divided into vehicle group (n=6, control, 0.3% Hydroxy cellulose, i.p.) and treatment group (n=6, ERX-41, 10 mg/kg/day/i.p.). Institutional guidelines were followed to determine experimental end points.

[7] = molecular target: T1, LAL lipase activity (Homo sapiens, UniProt P38571); test: Lipase activity assay (4-MUP), SUM-159 cell lysate; format: biochemical; conditions: SUM-159 cells; 30 μM
T1 construct: heat stability of LAL or vinculin protein in SUM-159 cells; endogenous in cells; host or cells: SUM-159
T1 sequence (P38571 77-399): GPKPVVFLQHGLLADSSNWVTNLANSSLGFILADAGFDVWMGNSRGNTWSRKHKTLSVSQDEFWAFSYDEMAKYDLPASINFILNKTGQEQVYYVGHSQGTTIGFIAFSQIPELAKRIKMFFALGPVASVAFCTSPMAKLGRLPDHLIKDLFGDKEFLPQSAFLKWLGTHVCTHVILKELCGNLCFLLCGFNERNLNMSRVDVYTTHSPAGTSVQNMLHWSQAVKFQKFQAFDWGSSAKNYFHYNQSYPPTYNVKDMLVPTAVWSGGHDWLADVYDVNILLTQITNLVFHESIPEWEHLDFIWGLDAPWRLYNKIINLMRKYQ
Protocol: Lipase activity assay: Lipase activity assays were performed as described previously (Dairaku, et al)^37. Briefly, a 0.345 mM substrate solution was prepared from 1.2 mL of 13.3 mM 4-MUP and 42 mL of 100 mM sodium acetate buffer pH 4.0, 1.0% (v/v) Triton X-100 and 3.0 mL of 0.5% (w/v) cardiolipin. For the enzyme reaction, 50 μL of the substrate in buffer solution, 40 μL of diluted cell lysate and 10 μL of DMSO or 30 μM Lalistat2 or 30 μM ERX-41 were combined in a black 96-well plate. The plates were sealed with an adhesive aluminum film and incubated in a 37° C. incubator for 1 h. The reactions were terminated using 200 μL of 150 mM EDTA at pH 11.5. The fluorescence of the plates were read immediately with synergy H1 fluorescence microplate reader (BioTek) using a 365-nm excitation filter and a 450-nm emission filter. The LIPA lipase activity was calculated by subtracting the enzymatic activity of the inhibited (with Lalistat2) reaction from that of the uninhibited (without Lalistat2) reaction.

[8] = tested on: Sum159 cells; test: DIA-MS of whole cell lysates; format: cell-based, Human; conditions: 500 nM, 6 h
Protocol: Mass spectrometry based DIA analyses of whole cell lysates: Sum159 cells were treated with vehicle or ERX-41 (500 nM). After 6 h of treatment, cells were pelleted and snap-frozen and then lysed in buffer containing 5% SDS/50 mM triethylammonium bicarbonate (TEAB) in the presence of protease and phosphatase inhibitors (Halt; Thermo Scientific) and nuclease (Pierce™ Universal Nuclease for Cell Lysis; Thermo Scientific). Aliquots corresponding to 100 μg protein (EZQ™ Protein Quantitation Kit; Thermo Scientific) were reduced with tris (2-carboxyethyl)phosphine hydrochloride (TCEP), alkylated in the dark with iodoacetamide and applied to S-Traps (mini; Protifi) for tryptic digestion (sequencing grade; Promega) in 50 mM triethylammonium bicarbonate (TEAB). Peptides were eluted from the S-Traps with 0.2% formic acid in 50% aqueous acetonitrile and quantified using Pierce™ Quantitative Fluorometric Peptide Assay (Thermo Scientific). Data-independent acquisition mass spectrometry (DIA-MS) was conducted on an Orbitrap Fusion Lumos mass spectrometer (Thermo Scientific). On-line HPLC separation was accomplished with an RSLC NANO HPLC system (Thermo Scientific/Dionex: column, PicoFrit™ (New Objective; 75 μm i.d.) packed to 15 cm with C18 adsorbent (Vydac; 218MS 5 μm, 300 Å); mobile phase A, 0.5% acetic acid (HAc)/0.005% trifluoroacetic acid (TFA) in water, mobile phase B, 90% acetonitrile/0.5% HAc/0.005% TFA/9.5% water; gradient 3 to 42% B in 120 min; flow rate, 0.4 μl/min. A pool was made of the 6 samples (three replicates from each group), and 2-μg peptide aliquots were analyzed using gas-phase fractionation and 4-m/z windows (30k resolution for precursor and product ion scans, all in the orbitrap) to create a DIA chromatogram library^40 by searching against a Prosit-generated predicted spectral library^41 based on the UniProt_human_20191022 protein sequence database. Experimental samples were blocked by replicate and randomized within each replicate for sample preparation and analysis; injections of 2 μg of peptides and a 2-h HPLC gradient were employed. […]

CC(C)COc1cc(C(=O)Nc2ccc(C(=O)N[C@H]3CC[C@H](C)CC3)cc2OCC(C)C)ccc1NC(=O)c1ccc([N+](=O)[O-])c(OCCO)c1 [ERX-41]
IC50 ([1]; Homo sapiens): 100 to 125 nM | IC50 [1]: 100 nM | enhancement of potency in TNBC, ERX-41 vs ERX-11 ([1]; from IC50>10 μM to 100 nM): > 100 fold | IC50 [2]: < 500 nM | IC50 [3]: 50 to 1000 nM | IC50 [4]: 100 to 125 nM | global de novo protein synthesis in HMEC [5]: not HMEC cells | induction of ER stress / UPR proteins in HMEC [5]: not in HMEC cells | Ki67 staining, parental xenografts ([6]; at sacrifice): decrease in Ki67 staining | response of parental xenografts ([6]; i.p., 10 mg/kg/day): responded significantly | lipase activity of LIPA [7]: no inhibition of lipase activity | number of cellular proteins with significantly affected expression [8]: 189 | number of down-regulated proteins [8]: 153 | number of up-regulated proteins [8]: 36
